Tests used:
NEP = experiment: Immunoblot of NEP in brains of APP23 mice; assay type: in vivo, mouse; conditions: Am80 0.5 and/or HX630 5 mg/kg/d, day 18, vs vehicle-treated mice
Description: APP23 mice begin forming amyloid deposits when they are 6 months old, but memory deficits in the MWM test appear quite early (before 3 months of age). Here, we used 8.5-month-old male APP23 mice and their WT littermates (C57BL/6J). We used stratified random sampling to divide mice (four to six per cage) into four groups to equalize the mean body weight of the study groups: mice given 0.5 mg/kg/d Am80, those given 5 mg/kg/d HX630, those given the mixture of 0.5 mg/kg/d Am80 and 5 mg/kg/d HX630, and those given the vehicle. Am80 and HX630 were suspended in 0.5% (w/v) carboxymethylcellulose solution and were orally administered to mice at 0.5 mg/kg (Am80) or 5 mg/kg (HX630) for 17 consecutive days (once daily at 18:00). Control animals received the same volume of 0.5% (w/v) carboxymethylcellulose solution orally, without the other compounds. We set the 0.5 mg/kg/d dose for Am80 on the basis that this had been found effective in other in vivo studies, such as those by Kawahara et al. and Ishido and Shudo [37]. Higher doses of Am80 (3 mg/kg/d and 6 mg/kg/d) were also orally administered to mice for 17 consecutive days. Animals were weighed once a week. Mice were subjected to behavioral testing on days 15-18 of the first oral administration of the compounds (at 19:00-23:00). On days 15-17 (not day 18), animals received the compounds at 24:00, after behavioral testing. […]

IL-4Rα = experiment: Immunoblot of IL-4Rα in MG5 cells; assay type: cell-based, mouse; conditions: 5 μM each, 48 h
Description: Primary microglia (type 1) were harvested from primary mixed glial cell cultures prepared from neonatal Wistar rat pups, as previously reported. Mouse microglial cell line MG5 and mouse glial cell line A1 were maintained as previously described. Mouse neuroblastoma cell line N1E-115 and Neuro 2a (American Type Culture Collection, Manassas, Va., USA) were maintained in Dulbecco's modified Eagle's medium (DMEM) supplemented with 10% fetal bovine serum (FBS), 20 U/ml penicillin (Invitrogen, Gaithersburg, Md., USA), and 20 μg/ml streptomycin (Invitrogen). Primary rat microglia were treated with Am80 (5 μM) and/or HX630 (5 μM) in the presence and absence of GW9662 (10 μM) for 48 h in Eagle's MEM supplemented with 10% FBS and 0.2% glucose. MG5 cells and A1 cells were treated with Am80 (5 μM) and/or HX630 (5 μM) for 48 h in DMEM containing 10% FBS. […]
Rat primary microglia and mouse microglial MG5 cells (5×10^6 cells per 100-mm dish) were homogenized in RIPA buffer [10 mM Hepes-NaOH (pH 7.4) containing 150 mM NaCl, 1 mM EDTA, 1% Triton X-100, 0.5% sodium deoxycholate, 0.1% SDS, 1 mM PMSF, 1 mg/ml leupeptin. […] Bound horseradish peroxidase-labeled antibodies were then detected via chemiluminescence (an ECL kit; Pierce, Rockford, Ill., USA). Protein concentrations were determined with the BCA Protein Assay Reagent (Pierce) and Bradford Protein Assay Reagent (Pierce).

CC1(C)CCC(C)(C)c2cc(NC(=O)c3ccc(C(=O)O)cc3)ccc21 [Am80, 4-{(5,6,7,8-tetrahydro-5,5,8,8-tetramethyl-2-naphthalenyl)carbamoyl}benzoic acid]
NEP protein level in brain (immunoblot) (NEP): Higher levels
IL-4Rα protein levels in MG5 cells (IL-4Rα): did not increase

CN1c2ccccc2N=C(c2ccc(C(=O)O)cc2)c2cc3c(cc21)C(C)(C)CCC3(C)C [HX630, 4-[5H-2,3-(2,5dimethyl-2,5-hexano)-5-methyldibenzo[b,e]-diazepin-11-yl]benzoic acid]
NEP protein level in brain (immunoblot) (NEP): Higher levels
IL-4Rα protein levels in MG5 cells (IL-4Rα): did not increase

Source: patent US9861640B2, “Medicament for treatment of Alzheimer's disease” (KEMPHYS LTD., priority 2013, dated 2018)
